Patent US20260355165A1, “2,3,4,9-TETRAHYDRO-1H-PYRIDO[3,4-B]INDOLE DERIVATIVES AS ESTROGEN RECEPTOR MODULATORS FOR THE TREATMENT OF CANCER” (Olema Pharmaceuticals, Inc., priority 2022, published 2026)

Target: T1, estrogen receptor (Homo sapiens, UniProt P03372)
T1 construct: endogenous in cells; host or cells: ECC-1 cells
T1 sequence (P03372 1-595): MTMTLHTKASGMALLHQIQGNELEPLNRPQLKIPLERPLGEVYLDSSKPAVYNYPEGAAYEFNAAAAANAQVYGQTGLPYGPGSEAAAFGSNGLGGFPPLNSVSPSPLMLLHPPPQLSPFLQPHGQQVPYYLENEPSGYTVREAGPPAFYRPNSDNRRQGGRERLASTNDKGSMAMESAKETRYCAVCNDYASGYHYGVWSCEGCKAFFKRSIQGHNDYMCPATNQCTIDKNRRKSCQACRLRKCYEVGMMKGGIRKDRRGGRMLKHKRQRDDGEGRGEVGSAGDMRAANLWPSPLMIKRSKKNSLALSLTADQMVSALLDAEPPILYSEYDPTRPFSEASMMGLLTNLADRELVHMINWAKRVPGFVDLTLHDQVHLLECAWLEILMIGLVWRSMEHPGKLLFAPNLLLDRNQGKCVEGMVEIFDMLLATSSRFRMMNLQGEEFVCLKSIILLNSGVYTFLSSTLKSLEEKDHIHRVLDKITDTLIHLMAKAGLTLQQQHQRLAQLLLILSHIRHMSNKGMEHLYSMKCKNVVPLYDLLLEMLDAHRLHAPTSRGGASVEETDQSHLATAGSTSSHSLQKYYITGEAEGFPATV
Test: AP assay (alkaline phosphatase activity in ECC-1 cells), agonist mode (absence of E2) and antagonist mode (presence of 500 pM E2)
Type: cell-based
Conditions: 3 days, AP activity normalized to 500 pM E2 alone, agonist and antagonist mode combined
How it was run: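 ECC-1 cells in hormone-depleted medium treated with compounds for 3 days, without E2 (agonist mode) or with 500 pM E2 (antagonist mode). AP activity read at 405 nm after p-nitrophenyl phosphate substrate, 40 min at 42 °C. Signal normalized to 500 pM E2 alone.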

Structure (SMILES) | Activity (estrogen receptor modulation, e.g., agonism and antagonism)
C[C@@H]1Cc2c([nH]c3ccccc23)[C@@H](c2ccc3nc(CN4CC(CF)C4)oc3c2)N1CC(C)(C)F [Compound I-72, 2-[[3-(fluoromethyl)azetidin-1-yl]methyl]-6-[(1R,3R)-2-(2-fluoro-2-methyl-propyl)-3-methyl-1,3,4,9-tetrahydropyrido[3,4-b]indol-1-yl]-1,3-benzoxazole] | + (estrogen receptor agonism having (i) at least 80% increase in the E2-normalized signal in the AP assay (agonist mode) and (ii) no more than 80% reduction in the E2-normalized signal in the AP assay (antagonist mode))
C[C@@H]1Cc2c([nH]c3ccccc23)[C@@H](c2ccc3nc(CN4CC(CF)C4)cn3c2)N1CC(C)(C)F [Compound I-73, (1R,3R)-1-[2-[[3-(fluoromethyl)azetidin-1-yl]methyl]imidazo[1,2-a]pyridin-6-yl]-2-(2-fluoro-2-methyl-propyl)-3-methyl-1,3,4,9-tetrahydropyrido[3,4-b]indole] | + (estrogen receptor agonism having (i) at least 80% increase in the E2-normalized signal in the AP assay (agonist mode) and (ii) no more than 80% reduction in the E2-normalized signal in the AP assay (antagonist mode))
C[C@@H]1Cc2c([nH]c3ccccc23)[C@@H](c2ccn3cc(CN4CC(CF)C4)nc3c2)N1CC(C)(C)F [Compound I-74, (1R,3R)-1-[2-[[3-(fluoromethyl)azetidin-1-yl]methyl]imidazo[1,2-a]pyridin-7-yl]-2-(2-fluoro-2-methyl-propyl)-3-methyl-1,3,4,9-tetrahydropyrido[3,4-b]indole] | +++ (estrogen receptor antagonism (i) with pIC50 greater than 7.5 and at least a 10% reduction in the E2-normalized signal in the AP assay (antagonist mode); and (ii) no more than 10% increase in E2-normalized signal in the AP assay (agonist mode))
C[C@@H]1Cc2c([nH]c3ccccc23)[C@@H](c2ccc3oc(CN4CC(CF)C4)nc3c2)N1CC(C)(C)F [Compound I-75, 2-[[3-(fluoromethyl)azetidin-1-yl]methyl]-5-[(1R,3R)-2-(2-fluoro-2-methyl-propyl)-3-methyl-1,3,4,9-tetrahydropyrido[3,4-b]indol-1-yl]-1,3-benzoxazole] | +++ (estrogen receptor antagonism (i) with pIC50 greater than 7.5 and at least a 10% reduction in the E2-normalized signal in the AP assay (antagonist mode); and (ii) no more than 10% increase in E2-normalized signal in the AP assay (agonist mode))
CC1CN(Cc2nc3cc([C@@H]4c5[nH]c6ccccc6c5C[C@@H](C)N4CC(C)(C)F)ccc3o2)C1 [Compound I-76, 5-[(1R,3R)-2-(2-fluoro-2-methyl-propyl)-3-methyl-1,3,4,9-tetrahydropyrido[3,4-b]indol-1-yl]-2-[(3-methylazetidin-1-yl)methyl]-1,3-benzoxazole] | +++ (estrogen receptor antagonism (i) with pIC50 greater than 7.5 and at least a 10% reduction in the E2-normalized signal in the AP assay (antagonist mode); and (ii) no more than 10% increase in E2-normalized signal in the AP assay (agonist mode))
C[C@@H]1Cc2c([nH]c3ccccc23)[C@@H](c2ccc3oc(CN4CC5(CCC5)C4)nc3c2)N1CC(C)(C)F [Compound I-77, 2-(2-azaspiro[3.3]heptan-2-ylmethyl)-5-[(1R,3R)-2-(2-fluoro-2-methyl-propyl)-3-methyl-1,3,4,9-tetrahydropyrido[3,4-b]indol-1-yl]-1,3-benzoxazole] | +++ (estrogen receptor antagonism (i) with pIC50 greater than 7.5 and at least a 10% reduction in the E2-normalized signal in the AP assay (antagonist mode); and (ii) no more than 10% increase in E2-normalized signal in the AP assay (agonist mode))
C[C@@H]1Cc2c([nH]c3ccccc23)[C@@H](c2cc3nc(CN4CC(CF)C4)oc3cc2F)N1CC(C)(C)F [Compound I-78, 6-fluoro-2-[[3-(fluoromethyl)azetidin-1-yl]methyl]-5-[(1R,3R)-2-(2-fluoro-2-methyl-propyl)-3-methyl-1,3,4,9-tetrahydropyrido[3,4-b]indol-1-yl]-1,3-benzoxazole] | + (estrogen receptor agonism having (i) at least 80% increase in the E2-normalized signal in the AP assay (agonist mode) and (ii) no more than 80% reduction in the E2-normalized signal in the AP assay (antagonist mode))
C[C@@H]1Cc2c([nH]c3ccccc23)[C@@H](c2cc(F)c3oc(CN4CC(CF)C4)nc3c2)N1CC(C)(C)F [Compound I-79, 7-fluoro-2-[[3-(fluoromethyl)azetidin-1-yl]methyl]-5-[(1R,3R)-2-(2-fluoro-2-methyl-propyl)-3-methyl-1,3,4,9-tetrahydropyrido[3,4-b]indol-1-yl]-1,3-benzoxazole] | + (estrogen receptor agonism having (i) at least 80% increase in the E2-normalized signal in the AP assay (agonist mode) and (ii) no more than 80% reduction in the E2-normalized signal in the AP assay (antagonist mode))
C[C@@H]1Cc2c([nH]c3ccccc23)[C@@H](c2ccc3oc(CN4CC(CF)C4)nc3c2)N1CC(F)(F)CO [Compound I-80, 2,2-difluoro-3-[(1R,3R)-1-[2-[[3-(fluoromethyl)azetidin-1-yl]methyl]-1,3-benzoxazol-5-yl]-3-methyl-1,3,4,9-tetrahydropyrido[3,4-b]indol-2-yl]propan-1-ol] | +++ (estrogen receptor antagonism (i) with pIC50 greater than 7.5 and at least a 10% reduction in the E2-normalized signal in the AP assay (antagonist mode); and (ii) no more than 10% increase in E2-normalized signal in the AP assay (agonist mode))
C[C@@H]1Cc2c([nH]c3ccccc23)[C@@H](c2cc(F)c3oc(CN4CC(CF)C4)nc3c2)N1CC(F)(F)CO [Compound I-81, 2,2-difluoro-3-[(1R,3R)-1-[7-fluoro-2-[[3-(fluoromethyl)azetidin-1-yl]methyl]-1,3-benzoxazol-5-yl]-3-methyl-1,3,4,9-tetrahydropyrido[3,4-b]indol-2-yl]propan-1-ol] | + (estrogen receptor agonism having (i) at least 80% increase in the E2-normalized signal in the AP assay (agonist mode) and (ii) no more than 80% reduction in the E2-normalized signal in the AP assay (antagonist mode))
C[C@@H]1Cc2c([nH]c3ccccc23)[C@@H](c2ccc3oc(C4CN(CCCF)C4)nc3c2)N1CC(C)(C)F [Compound I-82, 5-[(1R,3R)-2-(2-fluoro-2-methyl-propyl)-3-methyl-1,3,4,9-tetrahydropyrido[3,4-b]indol-1-yl]-2-[1-(3-fluoropropyl)azetidin-3-yl]-1,3-benzoxazole] | + (estrogen receptor agonism having (i) at least 80% increase in the E2-normalized signal in the AP assay (agonist mode) and (ii) no more than 80% reduction in the E2-normalized signal in the AP assay (antagonist mode))
C[C@@H]1Cc2c([nH]c3ccccc23)[C@@H](c2ccc3[nH]c(CN4CC5(CC(F)C5)C4)cc3c2)N1CC(C)(C)F [Compound I-87, (1R,3R)-1-(2-((6-fluoro-2-azaspiro[3.3]heptan-2-yl)methyl)-1H-indol-5-yl)-2-(2-fluoro-2-methylpropyl)-3-methyl-2,3,4,9-tetrahydro-1H-pyrido[3,4-b]indole] | + (estrogen receptor agonism having (i) at least 80% increase in the E2-normalized signal in the AP assay (agonist mode) and (ii) no more than 80% reduction in the E2-normalized signal in the AP assay (antagonist mode))
C[C@@H]1Cc2c([nH]c3ccccc23)[C@@H](c2ccc3[nH]c(CN4CC(F)C4)cc3c2)N1CC(C)(C)F [Compound I-90, (1R,3R)-1-[2-[(3-fluoroazetidin-1-yl)methyl]-1H-indol-5-yl]-2-(2-fluoro-2-methyl-propyl)-3-methyl-1,3,4,9-tetrahydropyrido[3,4-b]indole] | + (estrogen receptor agonism having (i) at least 80% increase in the E2-normalized signal in the AP assay (agonist mode) and (ii) no more than 80% reduction in the E2-normalized signal in the AP assay (antagonist mode))
CCC1CN(Cc2cc3cc([C@@H]4c5[nH]c6ccccc6c5C[C@@H](C)N4CC(C)(C)F)ccc3[nH]2)C1 [Compound I-91, (1R,3R)-1-[2-[(3-ethylazetidin-1-yl)methyl]-1H-indol-5-yl]-2-(2-fluoro-2-methyl-propyl)-3-methyl-1,3,4,9-tetrahydropyrido[3,4-b]indole] | + (estrogen receptor agonism having (i) at least 80% increase in the E2-normalized signal in the AP assay (agonist mode) and (ii) no more than 80% reduction in the E2-normalized signal in the AP assay (antagonist mode))
C[C@@H]1Cc2c([nH]c3ccccc23)[C@@H](c2ccc3[nH]c(CN4CC(C)(C)C4)cc3c2)N1CC(C)(C)F [Compound I-92, (1R,3R)-1-[2-[(3,3-dimethylazetidin-1-yl)methyl]-1H-indol-5-yl]-2-(2-fluoro-2-methyl-propyl)-3-methyl-1,3,4,9-tetrahydropyrido[3,4-b]indole] | + (estrogen receptor agonism having (i) at least 80% increase in the E2-normalized signal in the AP assay (agonist mode) and (ii) no more than 80% reduction in the E2-normalized signal in the AP assay (antagonist mode))
